Experimental data reported in PMC10761119, “Phosphorylation-state dependent intraneuronal sorting of Aβ differentially impairs autophagy and the endo-lysosomal system” (Autophagy, 2023).

Key:
SH-SY5Y cells [1] = experiment: Immunocytochemistry colocalization of Aβ with LC3 and LAMP2; assay type: cell-based, human; conditions: Aβ 1 µM, 24 h, n = 6, N = 3
Procedure: Cells were cultured on glass coverslips and treated similarly as mentioned above. After treatment, cells were subsequently washed and fixed with 4% paraformaldehyde in PBS for 15 min. […] Incubation with primary antibodies (respective dilutions in blocking buffer) was performed overnight at 4°C. Next day, coverslips were washed and incubated with respective secondary antibodies (respective dilutions in blocking buffer) for 1 h at RT. Removal of the secondary antibody solution was followed by washes with PBS (thrice) and distilled water (once) and coverslips were mounted on the slides using ImmuMount (ThermoFisher Scientific - Shandon EprediaTM, 9990412). […] Quantification of the number of autophagic compartments (Figure S6B) was done manually using a 10 μm^2 ROI grids, placed in the cytosolic region of the individual cells using the “rule of L” counting method. […] All images were processed and analyzed using Fiji ImageJ software. […] Distance from the plaque core (Figure 1B) was measured using the concentric circles plugin module. Fluorescence intensity of the green channel (Figure S3A-B), and the number of neurons positive for Aβ signals (Figure S3-D) were quantified using the processing module of Keyence software. […] Intensity of green and red channel for a particular ROI was calculated and ratios of the individual values were computed (Figure 6B and S7A). […]

SH-SY5Y cells [2] = experiment: Number and perinuclear/peripheral positioning of LAMP2-positive compartments; assay type: cell-based, human; conditions: Aβ 1 µM, 24 h
Procedure: Cells were cultured on glass coverslips and treated similarly as mentioned above. After treatment, cells were subsequently washed and fixed with 4% paraformaldehyde in PBS for 15 min. Cells were then permeabilized with 0.25% Triton X-100 in PBS for 1 min, followed by blocking with 2.5% BSA, 0.125% Triton X-100 in PBS. Incubation with primary antibodies (respective dilutions in blocking buffer) was performed overnight at 4°C. Next day, coverslips were washed and incubated with respective secondary antibodies (respective dilutions in blocking buffer) for 1 h at RT. Removal of the secondary antibody solution was followed by washes with PBS (thrice) and distilled water (once) and coverslips were mounted on the slides using ImmuMount (ThermoFisher Scientific – Shandon Epredia™, 9990412). For surface staining without permeabilization, Triton X-100 was not used in any solution during the staining procedure.
All images were processed and analyzed using Fiji ImageJ software. Mander’s overlap coefficient (Figure 1B–D; Figure 2B–F; Figure 4B–F; Figure 6E; S2B, D; S4B, D; S6D, F) analysis was done using the colocalization processing module of the Fiji ImageJ plugin. Distance from the plaque core (Figure 1B) was measured using the concentric circles plugin module. Fluorescence intensity of the green channel (Figure S3A-B), and the number of neurons positive for Aβ signals (Figure S3-D) were quantified using the processing module of Keyence software. […] Intensity of green and red channel for a particular ROI was calculated and ratios of the individual values were computed (Figure 6B and S7A). For computing the number of mCherry^+GFP^± vesicles or per cell (Figure 6D and S7B), cell outline was drawn manually and number of vesicles per cell (nucleus count – DAPI) was calculated. […] Due to slight variability in transfection efficiency or the number of cells in different experimental set-ups, the readings from each experiment were averaged and normalized to the control cells from that particular set. […]

Row | Substance | Accumulation in LC3-positive autophagosomal structures (SH-SY5Y cells [1]) | Number of LAMP2-positive vesicles (SH-SY5Y cells [2]) | Colocalization with LAMP2 (SH-SY5Y cells [1]) | Ratio of perinuclear to peripheral lysosomes (SH-SY5Y cells [2]; LAMP2-positive compartments, perinuclear <2 µm from nucleus, control 0.61 ± 0.12, n = 12, N = 3)
1 | amyloid-β phosphorylated at serine residue 8 [p-Ser8Aβ] | preferential accumulation | – | – | –
2 | amyloid-β phosphorylated at serine residue 26 [p-Ser26Aβ] | – | significantly increased | predominant colocalization | –
3 | non-phosphorylated amyloid-β [npAβ, reference compound] | – | significantly increased | – | 0.99 ± 0.16
